Experimental findings from patent US20230295119A1, “SUBSTITUTED PYRIDINES FOR THE TREATMENT OF INFLAMMATORY DISEASES” (GOSSAMER BIO SERVICES, INC., priority 2020, published 2023) are described below.

Broadly, the IC50 is the midpoint of a concentration-inhibition curve.

Assay [1] concerns the target TYK2 JH2 domain (Homo sapiens (Human), UniProt P29597). In words: TYK2 JH2 NanoBRET assay. It is filed as binding. As to conditions: Table 20, read-out: TYK2 IC50. A digest of the protocol:
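HEK293T cells transiently expressing NanoLuc-TYK2 JH2 fusion, incubated 2 h with compound and NanoBRET K10 tracer (0.5 µM final). Target engagement read as acceptor/donor BRET ratio after Nano-Glo substrate plus extracellular NanoLuc inhibitor.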
On the technique in general: Bioluminescence resonance energy transfer reports proximity on the nanometre scale.

In assay [2] the target is human JAK3 (Homo sapiens (Human), UniProt P52333). Briefly: JAK3 TR-FRET kinase assay. It is filed as biochemical. The following applies: JAK3 0.0125 nM. For orientation: In TR-FRET formats the signal depends on donor and acceptor labels being close together.
Assay [3] has as its target human JAK1 (Homo sapiens (Human), UniProt P23458). In words: JAK1 TR-FRET kinase assay. It is filed as biochemical. The following applies: TR-FRET, JAK1 2.5 nM.
In assay [4] the target is human JAK2 (Homo sapiens (Human), UniProt O60674). Briefly: JAK2 TR-FRET kinase assay. The following applies: JAK2 0.025 nM. It is filed as biochemical.

The structures appear in SMILES notation.

Sequence of human JAK3 (P52333 whole entry): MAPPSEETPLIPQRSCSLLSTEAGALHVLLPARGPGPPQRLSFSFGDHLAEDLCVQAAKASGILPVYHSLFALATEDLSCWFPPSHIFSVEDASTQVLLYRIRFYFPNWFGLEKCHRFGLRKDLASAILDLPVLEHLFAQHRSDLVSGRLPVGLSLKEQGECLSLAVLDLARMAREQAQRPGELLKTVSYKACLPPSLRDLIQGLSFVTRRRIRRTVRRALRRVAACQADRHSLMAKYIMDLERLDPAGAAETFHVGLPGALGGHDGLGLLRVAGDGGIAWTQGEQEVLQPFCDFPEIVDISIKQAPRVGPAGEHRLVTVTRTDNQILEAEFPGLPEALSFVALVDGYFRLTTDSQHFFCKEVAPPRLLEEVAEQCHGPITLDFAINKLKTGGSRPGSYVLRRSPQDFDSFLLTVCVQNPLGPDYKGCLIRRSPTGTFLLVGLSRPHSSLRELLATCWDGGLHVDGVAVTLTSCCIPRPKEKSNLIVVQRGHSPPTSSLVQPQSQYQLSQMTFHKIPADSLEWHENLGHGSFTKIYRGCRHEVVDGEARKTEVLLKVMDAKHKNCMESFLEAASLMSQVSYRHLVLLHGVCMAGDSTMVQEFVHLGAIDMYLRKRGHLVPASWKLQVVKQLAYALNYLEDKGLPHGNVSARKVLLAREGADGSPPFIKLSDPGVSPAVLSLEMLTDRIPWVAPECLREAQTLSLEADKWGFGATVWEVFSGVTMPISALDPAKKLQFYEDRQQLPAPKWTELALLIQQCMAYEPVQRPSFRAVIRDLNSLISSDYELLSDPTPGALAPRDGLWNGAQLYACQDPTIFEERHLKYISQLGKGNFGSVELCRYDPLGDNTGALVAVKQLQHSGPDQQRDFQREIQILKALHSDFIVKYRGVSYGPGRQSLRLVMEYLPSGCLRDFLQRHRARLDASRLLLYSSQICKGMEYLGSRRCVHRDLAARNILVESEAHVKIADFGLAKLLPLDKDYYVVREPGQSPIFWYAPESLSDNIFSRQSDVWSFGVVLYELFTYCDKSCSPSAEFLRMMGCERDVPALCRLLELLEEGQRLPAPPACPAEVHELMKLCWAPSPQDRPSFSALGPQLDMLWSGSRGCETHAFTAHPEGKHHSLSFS
Sequence of TYK2 JH2 domain (P29597 589-875): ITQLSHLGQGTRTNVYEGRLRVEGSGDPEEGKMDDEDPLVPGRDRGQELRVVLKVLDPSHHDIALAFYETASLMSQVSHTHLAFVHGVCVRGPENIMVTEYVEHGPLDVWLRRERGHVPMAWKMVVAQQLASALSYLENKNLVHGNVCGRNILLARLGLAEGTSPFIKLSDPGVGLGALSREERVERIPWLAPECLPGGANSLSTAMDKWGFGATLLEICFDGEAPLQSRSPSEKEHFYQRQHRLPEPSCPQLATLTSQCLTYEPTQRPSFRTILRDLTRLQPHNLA
Sequence of human JAK2 (O60674 whole entry): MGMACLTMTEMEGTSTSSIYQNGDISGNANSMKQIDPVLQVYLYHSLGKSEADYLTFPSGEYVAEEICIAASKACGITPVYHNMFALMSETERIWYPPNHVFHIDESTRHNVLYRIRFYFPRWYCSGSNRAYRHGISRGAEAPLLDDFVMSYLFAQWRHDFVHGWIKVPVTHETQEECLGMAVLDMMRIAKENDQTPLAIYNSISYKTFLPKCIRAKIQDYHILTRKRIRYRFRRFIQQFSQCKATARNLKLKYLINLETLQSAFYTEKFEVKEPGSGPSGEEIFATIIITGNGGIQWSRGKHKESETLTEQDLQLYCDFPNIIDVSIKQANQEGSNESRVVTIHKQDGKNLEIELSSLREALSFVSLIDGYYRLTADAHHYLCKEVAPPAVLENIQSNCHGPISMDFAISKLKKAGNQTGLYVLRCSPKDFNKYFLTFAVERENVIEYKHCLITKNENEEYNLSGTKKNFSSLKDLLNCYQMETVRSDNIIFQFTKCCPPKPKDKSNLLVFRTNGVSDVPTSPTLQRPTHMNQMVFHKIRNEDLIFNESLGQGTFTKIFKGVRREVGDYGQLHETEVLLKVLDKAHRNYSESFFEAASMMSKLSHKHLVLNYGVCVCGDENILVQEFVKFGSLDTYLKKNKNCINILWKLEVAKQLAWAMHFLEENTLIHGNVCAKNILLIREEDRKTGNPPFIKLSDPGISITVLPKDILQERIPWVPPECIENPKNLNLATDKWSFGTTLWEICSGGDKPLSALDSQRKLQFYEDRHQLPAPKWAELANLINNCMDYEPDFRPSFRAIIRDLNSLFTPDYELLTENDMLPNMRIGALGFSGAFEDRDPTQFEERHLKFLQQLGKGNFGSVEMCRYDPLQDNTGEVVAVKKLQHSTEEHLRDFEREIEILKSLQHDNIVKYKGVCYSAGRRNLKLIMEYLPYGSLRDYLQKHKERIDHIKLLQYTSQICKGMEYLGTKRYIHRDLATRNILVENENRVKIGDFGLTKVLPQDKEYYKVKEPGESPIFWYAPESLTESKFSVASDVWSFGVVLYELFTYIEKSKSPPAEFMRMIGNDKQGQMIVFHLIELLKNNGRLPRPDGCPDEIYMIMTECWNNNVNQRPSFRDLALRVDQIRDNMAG
Sequence of human JAK1 (P23458 whole entry): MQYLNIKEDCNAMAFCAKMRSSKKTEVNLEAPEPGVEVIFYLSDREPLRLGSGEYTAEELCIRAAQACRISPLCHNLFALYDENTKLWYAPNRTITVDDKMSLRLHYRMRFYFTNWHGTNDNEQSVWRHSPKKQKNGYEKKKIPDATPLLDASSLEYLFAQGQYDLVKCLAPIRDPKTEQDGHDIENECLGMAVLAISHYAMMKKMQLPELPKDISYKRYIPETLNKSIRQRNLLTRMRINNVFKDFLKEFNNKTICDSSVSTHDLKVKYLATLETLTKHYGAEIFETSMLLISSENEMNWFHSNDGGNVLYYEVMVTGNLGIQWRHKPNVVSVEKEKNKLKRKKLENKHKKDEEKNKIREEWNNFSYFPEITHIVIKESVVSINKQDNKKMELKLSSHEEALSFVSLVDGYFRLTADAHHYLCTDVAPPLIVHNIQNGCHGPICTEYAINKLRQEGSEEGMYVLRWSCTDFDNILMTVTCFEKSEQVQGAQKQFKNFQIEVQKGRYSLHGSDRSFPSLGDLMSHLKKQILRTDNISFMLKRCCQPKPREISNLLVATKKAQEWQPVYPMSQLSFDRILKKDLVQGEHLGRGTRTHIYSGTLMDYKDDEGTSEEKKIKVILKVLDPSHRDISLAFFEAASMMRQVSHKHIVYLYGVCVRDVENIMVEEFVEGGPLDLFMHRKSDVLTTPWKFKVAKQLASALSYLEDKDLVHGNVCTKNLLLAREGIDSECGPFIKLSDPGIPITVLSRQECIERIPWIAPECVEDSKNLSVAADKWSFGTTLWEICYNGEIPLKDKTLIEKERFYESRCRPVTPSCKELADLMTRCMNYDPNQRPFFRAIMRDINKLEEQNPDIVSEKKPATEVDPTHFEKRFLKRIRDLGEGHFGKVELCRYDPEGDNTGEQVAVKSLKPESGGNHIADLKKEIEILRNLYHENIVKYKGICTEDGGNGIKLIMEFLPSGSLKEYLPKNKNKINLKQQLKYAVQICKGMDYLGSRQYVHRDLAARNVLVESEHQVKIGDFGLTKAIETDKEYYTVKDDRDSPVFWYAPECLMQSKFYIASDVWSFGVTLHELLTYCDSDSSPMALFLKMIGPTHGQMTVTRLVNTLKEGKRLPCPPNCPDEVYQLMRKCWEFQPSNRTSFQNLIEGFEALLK

Take `CCC(=O)c1cnc(Nc2ccc(CN(C)CC)cn2)cc1Nc1cccc(-c2ncn(C)n2)c1OC` [Compound 9U]: the IC50 in assay [1] was below 5 nM; in assay [2] it was at least 500 nM; in assay [3], at least 500 nM; in assay [4], at least 500 nM.
As for `CCC(=O)c1cnc(Nc2cnc(C(N(C)C)C(F)(F)F)cn2)cc1Nc1cccc(-c2ncn(C)n2)c1OC` (stereo not shown) [Compound 9VVV], the half-inhibitory concentration (IC50) in assay [1] was 5 to 50 nM; in assay [2] it was at least 500 nM; in assay [3], at least 500 nM; in assay [4], at least 500 nM.
With `CCC(=O)c1cnc(Nc2ccc(CN3CCS(=O)(=O)CC3)cn2)cc1Nc1cccc(-c2ncn(C)n2)c1OC` [Compound 9VV], the IC50 in assay [1] is below 5 nM; in assay [2], 50 to 500 nM; in assay [3], at least 500 nM; in assay [4], 50 to 500 nM.
Turning to `CCC(=O)c1cnc(Nc2ccc(C(N(C)C)C(F)(F)F)cn2)cc1Nc1cccc(-c2ncn(C)n2)c1OC` (stereo not shown) [Compound 9V], the IC50 was below 5 nM in assay [1], at least 500 nM in assay [2], at least 500 nM in assay [3] and at least 500 nM in assay [4].
In the case of `CCC(=O)c1cnc(Nc2cnc(CN(C)CC(F)F)cn2)cc1Nc1cccc(-c2ncn(C)n2)c1OC` [Compound 9WWW], the IC50 was 5 to 50 nM in assay [1], at least 500 nM in assay [2], at least 500 nM in assay [3] and at least 500 nM in assay [4].
Take `CCC(=O)c1cnc(Nc2ccc(CN3CCS(=N)(=O)CC3)cn2)cc1Nc1cccc(-c2ncn(C)n2)c1OC` [Compound 9WW]: the IC50 in assay [1] is 5 to 50 nM; in assay [2], 50 to 500 nM; in assay [3], at least 500 nM; in assay [4], 50 to 500 nM.
Regarding `[2H]C([2H])([2H])N(Cc1ccc(Nc2cc(Nc3cccc(-c4ncn(C)n4)c3OC)c(C(=O)CC)cn2)nc1)C([2H])([2H])[2H]` [Compound 9W], the IC50 was below 5 nM in assay [1], at least 500 nM in assay [2], at least 500 nM in assay [3] and at least 500 nM in assay [4].
Take `CCC(=O)c1cnc(Nc2cnc(CN(C)CC(F)(F)F)cn2)cc1Nc1cccc(-c2ncn(C)n2)c1OC` [Compound 9XXX]: the IC50 in assay [1] is 5 to 50 nM; in assay [2] it was at least 500 nM; in assay [3] it was at least 500 nM; in assay [4] it was at least 500 nM.
On to `CCC(=O)c1cnc(Nc2ccc(CN3C4COCC3C4)cn2)cc1Nc1cccc(-c2ncn(C)n2)c1OC` [Compound 9XX], for which the IC50 is below 5 nM in assay [1], 50 to 500 nM in assay [2], at least 500 nM in assay [3] and 50 to 500 nM in assay [4].
Regarding `CCC(=O)c1cnc(Nc2ccc(CN(C)CC(F)(F)F)cn2)cc1Nc1cccc(-c2ncn(C)n2)c1OC` [Compound 9X], the IC50 in assay [1] was 5 to 50 nM; in assay [2], at least 500 nM; in assay [3], at least 500 nM; in assay [4] it was at least 500 nM.
Consider `CCC(=O)c1cnc(Nc2cnc(C3(N)CC3)cn2)cc1Nc1cccc(-c2ncn(C)n2)c1OC` [Compound 9YYY], for which the IC50 in assay [1] is 5 to 50 nM; in assay [2], at least 500 nM; in assay [3], at least 500 nM; in assay [4] it was at least 500 nM.
As for `CCC(=O)c1cnc(Nc2ccc(CN3CC4(COC4)C3)cn2)cc1Nc1cccc(-c2ncn(C)n2)c1OC` [Compound 9YY], the IC50 in assay [1] was below 5 nM; in assay [2] it was 50 to 500 nM; in assay [3], at least 500 nM; in assay [4], at least 500 nM.
For `CCC(=O)c1cnc(Nc2ccc(CN(C)CC(F)F)cn2)cc1Nc1cccc(-c2ncn(C)n2)c1OC` [Compound 9Y], the IC50 in assay [1] is 5 to 50 nM; in assay [2], at least 500 nM; in assay [3], at least 500 nM; in assay [4], at least 500 nM.
Regarding `CCC(=O)c1cnc(Nc2cnc(C3(NC)CC3)cn2)cc1Nc1cccc(-c2ncn(C)n2)c1OC` [Compound 9ZZZ], the IC50 is 5 to 50 nM in assay [1], at least 500 nM in assay [2], at least 500 nM in assay [3] and at least 500 nM in assay [4].
With `CCC(=O)c1cnc(Nc2ccc(CN3CC4(CCO4)C3)cn2)cc1Nc1cccc(-c2ncn(C)n2)c1OC` [Compound 9ZZ], the IC50 was below 5 nM in assay [1], at least 500 nM in assay [2], at least 500 nM in assay [3] and at least 500 nM in assay [4].
For `CCC(=O)c1cnc(Nc2ccc(C(C)NCC(F)(F)F)cn2)cc1Nc1cccc(-c2ncn(C)n2)c1OC` (stereo not shown) [Compound 9Z], the concentration for half-maximal inhibition (IC50) is 5 to 50 nM in assay [1], at least 500 nM in assay [2], at least 500 nM in assay [3] and 50 to 500 nM in assay [4].
With `CCC(=O)c1cnc(Nc2ccc(OCCN3CCCC3)cn2)cc1Nc1cccc(-c2ncn(C)n2)c1OC` [Compound 10A, 1-(4-((2-methoxy-3-(1-methyl-1H-1,2,4-triazol-3-yl)phenyl)amino)-6-((5-(2-(pyrrolidin-1-yl)ethoxy)pyridin-2-yl)amino)pyridin-3-yl)propan-1-one], the IC50 in assay [1] is below 5 nM; in assay [2], at least 500 nM; in assay [3], at least 500 nM; in assay [4], at least 500 nM.
On to `CCC(=O)c1cnc(Nc2ccc(CCN(C)C)cn2)cc1Nc1cccc(-c2ncn(C)n2)c1OC` [Compound 11A, 1-(6-((5-(2-(dimethylamino)ethyl)pyridin-2-yl)amino)-4-((2-methoxy-3-(1-methyl-1H-1,2,4-triazol-3-yl)phenyl)amino)pyridin-3-yl)propan-1-one], for which the IC50 in assay [1] was below 5 nM; in assay [2], at least 500 nM; in assay [3], at least 500 nM; in assay [4] it was at least 500 nM.
For `CCC(=O)c1cnc(Nc2ccc(CCNC)cn2)cc1Nc1cccc(-c2ncn(C)n2)c1OC` [Compound 11B], the IC50 in assay [1] is 5 to 50 nM; in assay [2] it was at least 500 nM; in assay [3] it was at least 500 nM; in assay [4] it was at least 500 nM.
Consider `CCC(=O)c1cnc(Nc2ccc(CCN3CCCC3)cn2)cc1Nc1cccc(-c2ncn(C)n2)c1OC` [Compound 11C], for which the IC50 in assay [1] is below 5 nM; in assay [2] it was at least 500 nM; in assay [3], at least 500 nM; in assay [4], at least 500 nM.
Turning to `CCC(=O)c1cnc(Nc2ccc(CCN(C)C)nn2)cc1Nc1cccc(-c2ncn(C)n2)c1OC` [Compound 11D], the half-maximal inhibitory concentration (IC50) was 5 to 50 nM in assay [1], at least 500 nM in assay [2], at least 500 nM in assay [3] and at least 500 nM in assay [4].
For the compound `CCC(=O)c1cnc(Nc2ccc(CCN3CCCC3)nn2)cc1Nc1cccc(-c2ncn(C)n2)c1OC` [Compound 11E], the half-inhibitory concentration (IC50) in assay [1] is 50 to 500 nM; in assay [2], at least 500 nM; in assay [3] it was at least 500 nM; in assay [4], at least 500 nM.
`CCC(=O)c1cnc(Nc2cc(CCN(C)C)ncn2)cc1Nc1cccc(-c2ncn(C)n2)c1OC` [Compound 11F]: the IC50 is below 5 nM in assay [1], at least 500 nM in assay [2], at least 500 nM in assay [3] and at least 500 nM in assay [4].
For `CCC(=O)c1cnc(Nc2cc(CCN3CCCC3)ncn2)cc1Nc1cccc(-c2ncn(C)n2)c1OC` [Compound 11G], the IC50 in assay [1] is below 5 nM; in assay [2], 50 to 500 nM; in assay [3] it was at least 500 nM; in assay [4], at least 500 nM.
For `CCC(=O)c1cnc(Nc2cnc(CCNC)cn2)cc1Nc1cccc(-c2ncn(C)n2)c1OC` [Compound 11H], the IC50 in assay [1] was 50 to 500 nM; in assay [2] it was at least 500 nM; in assay [3], at least 500 nM; in assay [4], at least 500 nM.
